We go through 18 compounds from paper PMC9827864, “In Situ Inhibitor Synthesis and Screening by Fluorescence Polarization: An Efficient Approach for Accelerating Drug Discovery” (Angewandte Chemie (International Ed. in English), 2022).

One may read the Ki as the equilibrium dissociation constant of an inhibitor or competing ligand from its target. Usually melting point stands for the temperature of the solid-liquid transition.

For series [1], the target named is T1, human prolyl hydroxylase 2 (PHD2) (Homo sapiens, UniProt Q9GZT9).
T1 construct: (181-426); made in house
T1 sequence (Q9GZT9 181-426): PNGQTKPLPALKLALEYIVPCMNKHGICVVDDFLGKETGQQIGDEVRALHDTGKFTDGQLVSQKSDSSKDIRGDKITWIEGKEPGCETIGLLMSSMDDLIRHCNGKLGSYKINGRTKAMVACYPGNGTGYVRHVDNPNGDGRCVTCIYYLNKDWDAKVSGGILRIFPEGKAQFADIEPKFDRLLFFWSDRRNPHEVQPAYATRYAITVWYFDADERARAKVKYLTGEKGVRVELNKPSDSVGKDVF
Put plainly: Fluorescence polarization (FP) competition assay of PHD2. The settings on record: purified compounds, 20 nM PHD2 (181-426), 30 nM probe, Cheng-Prusoff, mean±SD, read-out: Ki, binding affinity for PHD2. The protocol:
2.1 Fluorescence polarization (FP) competition assay of PHD2 [4]
FP assays were performed using a SPARK Multi-Mode Microplate Reader (Tecan) with excitation and emission filters appropriate for the fluorophore used in the binding experiment. Fluorescence polarization experiments were performed in 384-well, flat bottom, black assay plates (#3575, Corning) in a final volume of 60 µL. The final assay buffer contained: 30 nM fluorescence Probe, 20 nM PHD2 (181-426), 10 mM HEPES, pH 7.4, 150 mM NaCl, 0.05% Tween-20, and at the 1% DMSO (except for DMSO tolerance experiments, in which different DMSO concentrations were used as indicated). All plates measured in fluorescence polarization assays were incubated for a minimum of 30 min at RT. Fluorescence polarization was measured from the top of the well with a Tecan SPARK plate reader with polarized filters and optical modules for fluorescein (λex = 485 nm ± 25 nm, λem = 535 nm ± 25 nm). The standard error of the mean (SEM) values, were calculated by dividing the sample standard deviation by the square root of the sample size and are recorded as ± values for IC 50. Dose-dependent experiments were performed in th e same manner using at least 10 concentrations of the test compounds in 3 -fold serial dilutions from 100 µM. For each assay, negative controls (equivalent to 0% displacement) contained the fluorescent ligand, PHD2 (181 -426), and 20 µL FP buffer; blank cont rols contained only the fluorescent ligand and 40 µL buffer.
The reaction mixtures were incubated at RT for 60 min, then total fluorescence and fluorescence polarization measurements wer e taken. The percentage inhibition was calculated using Equation 1, where mPfree is the signal for the free probe (blank control) and mPbound is the signal for the bound probe (negative control).
IC50s were determined for duplicate measurements by non-linear least-squares analysis using GraphPad Prism 8.0.
The Ki values of the inhibitors were calculated using the Cheng-Prusoff equation.[5] Cheng-Prusoff equation: Ki = IC50 / (1 + [L]/Kd)
The Kd value was determined using a constant concentration of probe and titrating with PHD2 protein at increasing concentrations. [L] represents the concentration of the […] used in the FP assay. […]
For orientation: In fluorescence polarisation assays a small probe gives low polarisation when free and higher when bound to something large.

Series [2] deals with C57BL/6J mouse models of anemia induced by cisplatin. Put plainly: Improvement of anemia induced by cisplatin administration. The format is in vivo. The settings on record: cisplatin-induced anemia mice, po, 20 mg·kg^-1. The protocol: 5. Pharmacodynamic assay
The experimental mice (SPF, […], male) were obtained from SPF (Beijing) Biotechnology Co., Ltd (permit number: SCXK (Jing) 2019-0010). All animal related experiments were conducted under a China Pharmaceutical University (the certification of using the housing facility of laboratory animals: SYXK (Su) 2018 -0019) IACUC approved protocol in compliance with the guide for the care and use of laboratory animals (number: 202013705). […]
Representative compounds and Roxadustat were formulated in normal saline solution. […]
China Pharmaceutical University (ADVIA 2120 hematology system). […]
5.3 Improvement of anemia induced by cisplatin administration
C57BL/6J mice were treated with cisplatin ( po, 7 mg·kg-1) on days 0, 7, 14, and 28 of the experiment. On the 29th day, the animals were randomized into sham, control, and treated groups (n=5). […]
treatment anemia caused by cisplatin. The mice were treated with the compounds every alternate day for 30 days. the test sample is obtained via orbital venous plexus. The hemoglobin of samples was analyzed in the center for new drug safety evaluation and research at China Pharmaceutical University (ADVIA 2120 hematology system).

A value given as a limit tells only on which side of the number the result lay.

Turning to `O=C(O)c1ccccc1/C=N/NC(=O)c1cnc(-c2cccnn2)[nH]c1=O` [compound 11], the Ki in series [1] came out at 119 ± 9 nM.
Regarding `O=C(N/N=C/c1ccccc1O)c1cnc(-c2ccccn2)[nH]c1=O` [compound 8], the melting point is greater than 300 °C. Besides, in series [1], the Ki stood at 639 ± 37 nM.
For `O=C(N/N=C/c1cccc(O)c1O)c1cnc(-c2ncccn2)[nH]c1=O` [compound 4] the same measures were greater than 300 °C and 500 ± 16 nM.
For `O=C(N/N=C/c1cc(O)c(O)c(O)c1)c1cnc(-c2ccccn2)[nH]c1=O` [compound 7] the same measures were greater than 300 °C and 72 ± 5 nM.
Compound `O=C(O)c1cc(/C=N/NC(=O)c2cnc(-c3ccccn3)[nH]c2=O)ccc1O` [compound 15] returned a melting point greater than 300 °C. Besides, the Ki in series [1] stood at 200 ± 8 nM.
Taken in the same sequence, the figures for `O=C(O)c1ccc(/C=N/NC(=O)c2cnc(-c3ncccn3)[nH]c2=O)cc1` [compound 13] were greater than 300 °C and 1050 ± 129 nM.
In turn, `O=C(N/N=C/c1cc(O)ccc1O)c1cnc(-c2ccccn2)[nH]c1=O` [compound 9] gave a melting point greater than 300 °C. Further, the Ki in series [1] turned out to be 483 ± 9 nM.
As to `O=C(N/N=C/c1cccc(O)c1O)c1cnc(-n2cccn2)[nH]c1=O` [compound 1], the melting point was greater than 300 °C. Also, in series [1], the Ki is 113 ± 5 nM.
For `O=C(N/N=C/c1cccc(Cl)c1O)c1cnc(-c2cccnn2)[nH]c1=O` [compound 16] the same measures were greater than 300 °C and 394 ± 17 nM.
The compound `O=C(N/N=C/c1cccc(O)c1O)c1cnc(-c2ccccn2)[nH]c1=O` [compound 3] displayed a melting point greater than 300 °C. Moreover, the Ki in series [1] came to 48 ± 4 nM.
`O=C(O)c1ccc(/C=N/NC(=O)c2cnc(-c3ccccn3)[nH]c2=O)cc1` [compound 12] yielded a melting point greater than 300 °C. Also, the Ki in series [1] was determined as 103 ± 4 nM.
Taken in the same sequence, the figures for `O=C(N/N=C/c1ccc(O)c(O)c1O)c1cnc(-c2ccccn2)[nH]c1=O` [compound 10] were greater than 300 °C and 130 ± 4 nM.
Taken in the same sequence, the figures for `O=C(O)c1cc(/C=N/NC(=O)c2cnc(-c3cccnn3)[nH]c2=O)ccc1O` [compound 14] were greater than 300 °C and 155 ± 18 nM.
`O=C(N/N=C/c1cccc(O)c1O)c1cnc(-c2cccnn2)[nH]c1=O` [compound 2]: in series [1], the Ki stood at 68 ± 6 nM.
In turn, `O=C(N/N=C/c1cccc(O)c1O)c1cnc(-n2cncn2)[nH]c1=O` [compound 5] showed a melting point greater than 300 °C. The Ki in series [1] amounted to 548 ± 32 nM.
For `Cc1nc(C(=O)NCC(=O)O)c(O)c2ccc(Oc3ccccc3)cc12` [Roxadustat, reference compound], in series [2], the “Improvement of anemia (%)” value was 48.5%.
As to `O=C(N/N=C/c1ccc(O)c(O)c1)c1cnc(-c2ccccn2)[nH]c1=O` [compound 6], the melting point is 294.7 to 295.2 °C. In addition, the Ki in series [1] turned out to be 2620 ± 103 nM.
As to `O=C(N/N=C/c1cccc(O)c1Cl)c1cnc(-c2ccccn2)[nH]c1=O` [compound 18], the melting point is greater than 300 °C. In addition, the Ki in series [1] was 116 ± 5 nM.
